Results from PMC2099433, “The binding site for neohesperidin dihydrochalcone at the human sweet taste receptor” (BMC Structural Biology, 2007).
Residue numbers refer to the chain shown, from its start. Where a SMILES comes first, the peptide text is derived from it.

Tests used:
hTAS1R2/hTAS1R3 = biological target: T1, hTAS1R2/hTAS1R3 (Homo sapiens, UniProt Q7RTX0+Q8TE23); test: Concentration-response curves of sweeteners in the presence of different lactisole concentrations; format: cell-based; settings: for increase of EC50 value by lactisole: presence vs absence of lactisole; for Hill slope: constant over tested lactisole concentrations
T1 construct: expressed in transfected cells; host or cells: HEK293T cells stably expressing G16Gust44
T1 sequence (Q8TE23 20-839): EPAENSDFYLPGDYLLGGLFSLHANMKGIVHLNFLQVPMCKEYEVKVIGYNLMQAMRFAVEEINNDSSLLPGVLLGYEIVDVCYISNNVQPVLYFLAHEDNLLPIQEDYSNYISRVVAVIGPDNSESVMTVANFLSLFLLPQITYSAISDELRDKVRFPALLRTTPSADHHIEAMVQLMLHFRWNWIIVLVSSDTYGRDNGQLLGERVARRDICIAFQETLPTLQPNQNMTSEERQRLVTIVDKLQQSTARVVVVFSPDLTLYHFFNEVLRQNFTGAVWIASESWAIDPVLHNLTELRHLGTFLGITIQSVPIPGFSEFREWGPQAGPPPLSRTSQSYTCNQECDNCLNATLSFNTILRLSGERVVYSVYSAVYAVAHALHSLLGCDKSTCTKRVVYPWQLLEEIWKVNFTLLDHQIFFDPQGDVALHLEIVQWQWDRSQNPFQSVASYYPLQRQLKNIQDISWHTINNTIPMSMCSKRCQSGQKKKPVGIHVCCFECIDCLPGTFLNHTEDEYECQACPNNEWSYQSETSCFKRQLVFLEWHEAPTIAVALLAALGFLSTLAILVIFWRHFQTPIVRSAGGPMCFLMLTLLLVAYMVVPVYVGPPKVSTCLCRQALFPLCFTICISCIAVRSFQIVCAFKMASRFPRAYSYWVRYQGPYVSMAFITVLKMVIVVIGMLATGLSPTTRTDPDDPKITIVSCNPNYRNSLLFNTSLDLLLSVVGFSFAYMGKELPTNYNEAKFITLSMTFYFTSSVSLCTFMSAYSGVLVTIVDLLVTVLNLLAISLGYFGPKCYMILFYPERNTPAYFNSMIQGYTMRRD
T1 sequence (Q7RTX0 21-852): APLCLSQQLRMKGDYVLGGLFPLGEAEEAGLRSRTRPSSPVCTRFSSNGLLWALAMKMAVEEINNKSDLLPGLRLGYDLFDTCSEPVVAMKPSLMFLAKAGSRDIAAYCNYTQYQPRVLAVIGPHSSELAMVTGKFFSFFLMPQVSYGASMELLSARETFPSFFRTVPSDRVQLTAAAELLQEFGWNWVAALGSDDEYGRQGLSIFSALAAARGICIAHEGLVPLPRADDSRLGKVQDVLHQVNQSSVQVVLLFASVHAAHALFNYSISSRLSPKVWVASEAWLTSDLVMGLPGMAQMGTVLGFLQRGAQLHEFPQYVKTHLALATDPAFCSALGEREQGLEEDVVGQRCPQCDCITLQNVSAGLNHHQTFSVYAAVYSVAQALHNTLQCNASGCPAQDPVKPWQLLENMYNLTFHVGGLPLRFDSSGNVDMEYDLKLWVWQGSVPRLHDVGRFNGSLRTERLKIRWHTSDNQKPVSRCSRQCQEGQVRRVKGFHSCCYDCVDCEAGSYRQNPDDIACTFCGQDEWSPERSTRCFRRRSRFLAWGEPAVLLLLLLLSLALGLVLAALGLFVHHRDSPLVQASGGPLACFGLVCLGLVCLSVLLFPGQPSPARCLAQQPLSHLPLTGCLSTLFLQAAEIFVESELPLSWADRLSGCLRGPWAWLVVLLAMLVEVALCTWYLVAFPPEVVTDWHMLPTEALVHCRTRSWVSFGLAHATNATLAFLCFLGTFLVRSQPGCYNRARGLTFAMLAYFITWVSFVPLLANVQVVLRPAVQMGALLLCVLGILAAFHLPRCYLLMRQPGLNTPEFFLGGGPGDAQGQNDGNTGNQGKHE

[1] = biological target: T2, hTAS1R2 + hTAS1R3 C801L^7.39 (Homo sapiens, UniProt Q7RTX0+Q8TE23, C801L); test: Calcium response (FLIPR), hTAS1R3 mutant coexpressed with hTAS1R2; format: cell-based; settings: for receptor activation: mutant C801L^7.39; for EC50: variant C801L^7.39, n.f. = no response to any tested sweetener
T2 construct: expressed in transfected cells; host or cells: HEK293T cells stably expressing G16Gust44
T2 sequence (Q7RTX0 21-852 C801L): T1 sequence (Q7RTX0 21-852) with C781L
T2 sequence (Q8TE23 20-839): T1 sequence (Q8TE23 20-839)
Protocol: The cDNAs for TAS1Rs tagged at the C-terminus with the herpes simplex virus glycoprotein D (HSV) were transiently transfected into HEK293T cells stably expressing the chimeric G-protein subunit G16Gust44 [44] using Lipofectamine 2000 (Invitrogen, Carlsbad, CA) according to the manufacturer's protocol. 3–4 hours after transfection, DMEM was replaced by low-glucose DMEM supplemented with GlutaMAX and 10% dialyzed FBS (Invitrogen, Carlsbad, CA). 24 h post transfection, cells were loaded for 1 h with the calcium sensitive dye Fluo4-AM (2 μg/ml in DMEM, Molecular Probes, Carlsbad, CA). […] We monitored calcium mobilization following receptor stimulation with sweet tastants by an automated fluorometric imaging plate reader (FLIPR, Molecular Devices, Sunnyvale, CA). Compounds used as stimuli (Sigma-Aldrich, St. Louis, MO; Merck, Whitehouse Station, NJ) were dissolved in C1 solution. All data were collected from at least three independent experiments carried out in duplicate. The obtained calcium signals were corrected for the response of mock transfected cells and normalized to the fluorescence of cells prior to the application of the stimulus using ΔF/F = (F-F0)/F0.

Row | EC50 (hTAS1R2/hTAS1R3; 0.0 μM lactisole) [mM] | Hill coefficient (hTAS1R2/hTAS1R3; 0.0 μM lactisole) | Hill coefficient (hTAS1R2/hTAS1R3; 50 μM lactisole) | Hill coefficient (hTAS1R2/hTAS1R3; 100 μM lactisole) | increase of EC50 value by lactisole (hTAS1R2/hTAS1R3) | receptor activation [1] | EC50 [1] | Hill slope (hTAS1R2/hTAS1R3) | SMILES
1 | 0.2 ± 0.1 | 0.8 | 1.2 | 1.5 | ~ fourfold | could not be activated | n.f. |  | COc1ccc(CCC(=O)c2c(O)cc(O[C@@H]3O[C@H](CO)[C@@H](O)[C@H](O)[C@H]3O[C@@H]3O[C@@H](C)[C@H](O)[C@@H](O)[C@H]3O)cc2O)cc1O [NHDC, neohesperidin dihydrochalcone]
2 | 0.12 ± 0.04 |  |  |  |  | could not be activated |  | ~ 2 | CC1=CC(=O)NS(=O)(=O)O1 [acesulfame K]
3 | 0.5 ± 0.1 |  |  |  |  | could not be activated | n.f. | ~ 2 | COC(=O)[C@H](Cc1ccccc1)NC(=O)[C@@H](N)CC(=O)O [aspartame] (HELM PEPTIDE1{D.F.[CO[*:1]]}$$$$V2.0)
4 | 2.2 ± 0.3 |  | 2.5 |  | ~ fourfold | could not be activated |  |  | O=S(=O)(O)NC1CCCCC1 [cyclamate]
